# Laboratory results as given in patent US10077268B2, “FXR agonists and methods for making and using” (Salk Institute for Biological Studies, priority 2014, dated 2018).
# Assays:
# TGR5 null mice = test: HFD-fed TGR5-null mice; type: in vivo; conditions: 100 mg/kg/day PO 5 weeks
# Procedure: HFD-fed TGR5-null mice were treated with vehicle or fexaramine (100 mg/kg os daily for 5 weeks with HFD, n=10). (A) Ileal FXR target gene expressions (B) Serum BA levels (C) Fasting glucose levels (D) Glucose tolerance test (E) Core body temperature (F) Oxygen consumption rate (G) Carbon dioxide production (H) Gene expression in BAT (I) Body weight curve (J) Body composition by MRI (K) Insulin Tolerance Test (L) Hepatic gene expression (M) Hepatic TG levels (N) and Gene expression in soleus of TGR5 knockout mice with and without fexaramine treatment. For bar graphs, vehicle is left bar, Fex is right bar. Data represent the mean±SD. Statistical analysis was performed with the Student's t test. *p<0.05, **p<0.01.
# To address this possibility, HFD-fed TGR5 null mice were chronically treated with Fex (100 mg/kg/day PO for 5 weeks). […] In particular, the anti-lipogenic effects of Fex in the liver appear to require TGR5 activation, as key hepatic lipogenic genes and liver triglyceride content were not affected by Fex treatment (FIGS. 11L, 11M).
# [1] = test system: FXR target gene expression; test: FXR target gene expression (qPCR) after acute PO or IP treatment; type: in vivo, C57BL/6J mice; conditions: for FXR target genes (IBABP, OSTα, FGF15) in liver or kidney / FXR target genes (IBABP, OSTα, FGF15) in the intestine: PO
# Procedure: FIGS. 1A-1C are a comparative expression chart and two bar charts, respectively, illustrating increased levels of FXR target gene expression in the intestine relative to expression in the liver and kidney. 8 week-old C57BL/6J mice were treated with vehicle or fexaramine (100 mg/kg) via oral (PO) or intraperitoneal (IP) injection for three days (FIGS. 1A-1B) or five days (FIG. 1C).
# FXR target gene expression was analyzed by qPCR. Gene expression was normalized against a vehicle-treated group.
# FIG. 1F is a bar chart illustrating that orally delivered fexaramine is intestinally-restricted. Mice received vehicle or Fexaramine (100 mg/kg) via per os (PO) or intraperitoneal (IP) injection for 5 days. Expression of the FXR target gene SHP after PO or IP injection in selected tissues is shown.
# (§1) Upon exploration of the in vivo effects of fexaramine (Fex) administration, it was discovered that due to ineffectual absorption, oral (PO) and intraperitoneal (IP) drug delivery produced very different effects (FIGS. 1D and 1E).
# [2] = LC/MS quantification of serum fexaramine after PO or IP; type: in vivo, mice
# Procedure: FIG. 1D is a schematic diagram illustrating an experimental procedure used to evaluate fexaramine, where mice were treated with vehicle or fexaramine (100 mg/kg) via PO or IP injection, and LC/MS quantification of serum fexaramine was conducted five days later.
# FIG. 1E is a bar chart illustrating serum fexaramine concentrations after administration as described in FIG. 1D. Data represent mean values±STD. Statistical analysis was performed with the Student's t test (*p<0.05, **p<0.01).
# as §1
smiles,measurement,setting,value
COC(=O)/C=C/c1cccc(N(Cc2ccc(-c3ccc(N(C)C)cc3)cc2)C(=O)C2CCCCC2)c1 [fexaramine],FXR target genes in the ileum of TGR5 null mice,TGR5 null mice,induced multiple FXR target genes
same,core body temperature and metabolic rate in TGR5 null mice,TGR5 null mice,somewhat blunted increases
same,fasting glucose levels and glucose tolerance in TGR5 null mice,TGR5 null mice,moderate improvements
same,key hepatic lipogenic genes and liver triglyceride content in TGR5 null mice,TGR5 null mice,not affected
same,serum BA levels in TGR5 null mice,TGR5 null mice,lowered serum BA levels
same,weight gain or insulin sensitivity in TGR5 null mice,TGR5 null mice,no significant changes
same,FXR target gene expression in the liver and kidney after IP injection,"[1]; IP, 100 mg/kg, five days",increases FXR target gene expression in the liver and kidney
same,induction of SHP in liver and kidney,"[1]; PO versus IP, 100 mg/kg for five days",only seen in liver and kidney after IP treatment
same,"FXR target genes (IBABP, OSTα, FGF15) in liver or kidney",[1]; 100 mg/kg,not in the liver or kidney
same,"FXR target genes (IBABP, OSTα, FGF15) in the intestine",[1]; 100 mg/kg,substantially enhances FXR target gene expression in the intestine
same,"FXR target genes (IBABP, OSTα, FGF15) in liver or kidney","[1]; 100 mg/kg, listed as Fex",failed to affect the expression of these genes in liver or kidney
same,"FXR target genes (IBABP, OSTα, FGF15) in the intestine","[1]; 100 mg/kg, listed as Fex",induced multiple FXR target genes in the intestine
same,induction of FXR target gene SHP throughout the intestine,"[1]; acute PO and IP, 100 mg/kg for five days",robust induction
same,serum Fex level after PO compared to IP,"[2]; acute PO vs IP, 100 mg/kg",10 % of IP levels
same,absorption after oral delivery,[2]; oral,poorly absorbed
